Measured values: US20090247495A1, “CU[…] AND USES THEREOF” (priority 2007, published 2009)
Entries after “also recorded” stand apart in the source; their conditions may differ.

What was measured:
[1] = system: human MDA-MB-231 breast cancer cells; assay: Orthotopic human breast cancer model in nude mice; format: in vivo
Protocol: (§1) One million human MDA-MB-231 breast cancer cells/Matrigel (vol 1:1) were inoculated isotopically into the breasts of nude mice. The mice received intraperitoneal injections of 1 mg/ml of cucurbitacin B 3 times a week starting on the day after inoculation of the cells. The longitudinal and the transverse diameter, and the height were measured once a week. The volume was calculated by multiplying these elements, and the relative tumor size was determined by dividing the product by the initial volume. After 6 weeks, the mice were sacrificed to weigh the dissected tumors. At that moment, blood was taken for analysis, where organs and tumors were inspected, dissected, fixed and stained with hematoxylin-eosin and/or Ki-67. Data were expressed as mean±SD. Statistical analysis was performed by student's t test.
(§2) Six weeks after i.p. treatment with either vehicle or cucurbitacin B 1 mg/kg three times a week, mice were euthanized and tumors were observed and weighed. Results represented the mean and SD of 9 treated and 9 control tumors. Statistical analysis was performed by student's t test.

[2] = system: 59 human cancer cell lines; assay: SRB growth inhibition, 59-NCI Cancer Cell Line Panel; format: cell-based; details: 48 hours, range over 59 cell lines
Text: Human cancer cell lines from the 59-NCI Cancer Cell Line Panel including leukemia, melanoma and cancers of breast, brain, colon, lung, ovary, prostate and kidney, were purchased from the National Institute of Cancer (USA). The growth inhibition (GI50) of these cell lines treated with cucurbitacin B and cucurbitacin D in various concentrations was investigated.
59 human cancer cell lines were maintained in RPMI 1640 (Invitrogen Life Technologies, CA, USA) supplemented with 5% Fetal Bovine Serum, 2 mM L-glutamine and 1% Penicillin/Streptomycin (Invitrogen Life Technologies) at 37° C. with 5% CO2. All chemicals were purchased from Sigma (St. Louis, Mo., USA) unless specified otherwise.
Sulforhodamine B (SRB) assay was applied to determine the cytostatic effect of cucurbitacin B and cucurbitacin D. SRB is a dye that binds to cellular proteins and will be dissolved in base. The biomass of total protein can be measured at 520 nm using a plate reader.
Cells were inoculated into 96-well microtiter plates including “Time zero” (Tz) plates in 100 μl at cell concentrations from 5000 to 40,000 cells per well according to NCI guideline. The cells were incubated at 37° C. with 5% CO2 for 24 hours. […] Bound SRB was solubilized with 100-200 ul per well of 10 mM trizma base and absorbance was measured at a wavelength of 520 nm. The percentage of growth inhibition was calculated as follows: […]

[3] = Gross and microscopic examination of organs of treated mice; format: in vivo, nude mice; details: i.p. 1 mg/kg three times a week, six weeks
Protocol: as §1, §2

[4] = system: PARP; assay: Western blot of PARP cleavage in HL60 cells; format: cell-based, human
Protocol: Control cells, as well as cells treated with cucurbitacin B or cucurbitacin D, were harvested and collected by centrifugation. Whole cell extracts were then prepared by lysing the cells using 4% sodium dodecyl sulfate (SDS) gel sample buffer. Cell extracts were boiled for 10 min and chilled on ice, subjected to 12% SDS-polyacrylamide gel electrophoresis, and transferred to a PVDF membrane. Each membrane was cut into to two pieces with one piece incubated at 4° C. overnight with antibodies against cell cycle signaling proteins, such as ERK, phosphorlated-ERK, p38, phosphorlated-p38, Cyclin E, Retinoblastoma, phosphalated-Retinoblastoma and c-myc, and apoptotic protein (PARP). β-actin was used as a control for protein loading. All antibodies were obtained from Cell signaling Technologies (USA). Then membranes were incubated at 37° C. for 1 h with secondary antibody conjugated with peroxidase, and the signal was detected using chemiluminescence detection reagent. The relative protein level was calculated as the ratio of the optical density of the protein of interest to that of β-actin.

[5] = system: Stat3; assay: Western blot of Stat3 activation in K562 cells; format: cell-based, human; details: 50 μM
Protocol: K562 leukemia cells were serum starved for 18 hours prior to cucurbitacin B treatment. The cells were incubated at a 75-mm culture flask filled with 10 ml growth medium (RPMI with 10% FBS and 1% PS) at the cell density of 1×10^5 cells/ml in the presence or absence of cucurbitacin B for various time intervals. The drug treatment were terminated by centrifugation at 1500 rpm for 5 minutes and the cells were rinsed twice with phosphate-buffered saline and lysed at 4° C. in a lysis buffer containing 50 mM Tris-HCl, pH7.5, […], 5 mM EDTA, 40 mM NaP2O7, 1% Triton X-100, 1 mM dithiothreitol, 200 μM Na3VO4, 100 μM phenylmethysufonyl fluoride, 2 μg/ml leupeptin, 4 μg/ml aprotinin and 0.7 μg/ml pepstatin. The insoluble protein lysate were removed by centrifugation for 10 minutes at 13000 rpm. Fifteen micrograms of protein lysate was resolved using SDS-polyacryamide gel electrophoresis (PAGE) (usually 8%-12% polyacrylamide gel) and then subjected to western blot anaylsis. Western blots were performed with antibodies specific for phosphorylated and total Stat3, c-Raf, Mek, and Erk. The blots were developed with the Enhanced Chemiluminescence Plus (ECL Plus) detection system (Amersham). • 6.1.7 GTPase Pull-Down Assay
15 μg cell lysate of each sample was separated in 8% SDS-PAGE followed by immuno-blotting with anti-Stat3 antibodies to detect the phosphorylated form of Stat3 as well as its total expression level.
Cells were serum starved for 18 hours followed by treated with 50 μM cucurbitacin B for 10 minutes, 30 minutes, 1 hour and 4 hours, respectively. 15 μg cell lysate of each sample was separated in 8% SDS-PAGE followed by immuno-blotting with anti-Stat3 antibodies to detect the phosphorylated form of Stat3 as well as its total expression level.

[6] = system: Panc-1 and SW cells; assay: Cell cycle analysis by flow cytometry, pancreatic cells; format: cell-based, human; details: different periods
Protocol: Panc-1 and SW cells were incubated with cucurbitacin B for different periods at 37° C. At specific time points, cells were washed and fixed with chilled 80% ethanol, and incubated on ice for 30 min. prior to staining with propidium iodide. All analyses were performed by flow cytometry.

With `CC(=O)OC(C)(C)/C=C/C(=O)[C@](C)(O)C1[C@H](O)C[C@@]2(C)C3CC=C4C(C[C@H](O)C(=O)C4(C)C)[C@]3(C)C(=O)C[C@]12C` (stereo partly drawn) [cucurbitacin B] the “weight of dissected tumors vs vehicle treated mice” value ([1]; i.p. 1 mg/kg three times a week, six weeks) was “weighed significantly less”, the “growth of MDA-MB-231 tumors compared with control” value ([1]; intraperitoneal 1 mg/kg 3 times a week, 6 weeks) was 50.1% and the GI50 [2] was 5.8 to 164 nM. For the same compound, the “gross and microscopic examination of the liver, spleen, and peritoneum” value [3] was “no significant difference”, the “apoptosis marker PARP” value [4] was “cleavage of PARP” and the “inhibition on Stat3 activation” value ([5]; 10 minutes to 30 minutes) was “No significant change”. The “inhibition effect on Stat3 activation” value ([5]; 1 hour to 4 hours) was “gradually increased at 1 hours and peak at 4 hours; also recorded: inhibited Stat3 phosphorylation”, the “Stat3 activation (phosphorylated Stat3)” value ([5]; 4 hours) was “significant inhibited” and the cell cycle effect [6] was “arrest at G1 and/or G2 phase”.
